Assay results: patent US8952024B2, “Herbicidal pyrimidone derivatives” (E I du Pont de Nemours and Company, priority 2009, dated 2015)
Where two headings read alike, the source gives them in different places.

Columns and labels:
Format in all cases: in vivo
[1] = tested on: barnyardgrass (Echinochloa crus-galli); experiment: Test A pre-/postemergence plant response; conditions: Echinochloa crus-galli, 240 h, read-out: Plant response rating, Barnyardgrass; for pest or weed control at 125 g/ha: 125 g ai/ha; for pest or weed control at 500 g/ha: 500 g ai/ha, approx. ten days
Outline: (§1)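 Pre: directed soil spray on seeded loam/sand blend. Post: same formulation (non-phytotoxic solvent + surfactant) on 2–10 cm plants, 1–2 leaf stage. Greenhouse ~10 d; visual injury score 0–100 vs untreated.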

corn (Zea mays) = experiment: Test A pre-/postemergence plant response; conditions: Zea mays, 240 h; for Corn plant response rating (crop injury, 0 = no effect, 100 = complete kill) at 125 g/ha: 125 g ai/ha
Outline: as §1

[2] = tested on: giant foxtail (Setaria faberii); experiment: Test A pre-/postemergence plant response; conditions: Setaria faberi, 240 h, read-out: Plant response rating, Foxtail, Giant; for pest or weed control at 125 g/ha: 125 g ai/ha; for pest or weed control at 500 g/ha: 500 g ai/ha, approx. ten days
Outline: as §1

[3] = tested on: large crabgrass (Digitaria sanguinalis); experiment: Test A pre-/postemergence plant response; conditions: Digitaria sanguinalis, 240 h, read-out: Plant response rating, Crabgrass, Large; for pest or weed control at 125 g/ha: 125 g ai/ha; for pest or weed control at 500 g/ha: 500 g ai/ha, approx. ten days
Outline: as §1

[4] = tested on: morningglory (Ipomoea spp.); experiment: Test A pre-/postemergence plant response; conditions: Ipomoea, 240 h, read-out: Plant response rating, Morningglory; for pest or weed control at 125 g/ha: 125 g ai/ha; for pest or weed control at 500 g/ha: 500 g ai/ha, approx. ten days
Outline: as §1

[5] = tested on: pigweed (Amaranthus retroflexus); experiment: Test A pre-/postemergence plant response; conditions: Amaranthus retroflexus, 240 h, read-out: Plant response rating, Pigweed; for pest or weed control at 125 g/ha: 125 g ai/ha; for pest or weed control at 500 g/ha: 500 g ai/ha, approx. ten days
Outline: as §1

[6] = tested on: velvetleaf (Abutilon theophrasti); experiment: Test A pre-/postemergence plant response; conditions: Abutilon theophrasti, 240 h, read-out: Plant response rating, Velvetleaf; for pest or weed control at 125 g/ha: 125 g ai/ha; for pest or weed control at 500 g/ha: 500 g ai/ha, approx. ten days
Outline: as §1

[7] = tested on: wheat (Triticum aestivum); experiment: Test A pre-/postemergence plant response; conditions: Triticum aestivum, 240 h, read-out: Plant response rating, Wheat; for plant injury at 125 g/ha: 125 g ai/ha; for plant injury at 500 g/ha: 500 g ai/ha, approx. ten days
Outline: as §1

[8] = tested on: barnyardgrass (Echinochloa crus-galli); experiment: Test B flooded paddy test; conditions: Echinochloa crus-galli, 360 h
Outline: (§2)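 Ratings are visual, 0–100 (100 = complete control), taken versus untreated controls 13 to 15 days after treatment in the greenhouse. Compound went straight into paddy water held 3 cm above soil, applied to 2-leaf-stage plants of four species.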

[9] = tested on: ducksalad (Heteranthera limosa); experiment: Test B flooded paddy test; conditions: Heteranthera limosa, 360 h
Outline: as §2

rice (Oryza sativa) = experiment: Test B flooded paddy test; conditions: Oryza sativa
Outline: as §2

[10] = tested on: umbrella sedge (Cyperus difformis); experiment: Test B flooded paddy test; conditions: Cyperus difformis, 360 h
Outline: as §2

[11] = post-emergence, Postemergence, 0 to 100 scale where 0 is no effect and 100 is complete control
[12] = post-emergence, Postemergence, 0 to 100 scale, 0 = no effect, 100 = complete control
[13] = pre-emergence, Preemergence, 0 to 100 scale, 0 = no effect, 100 = complete control
[14] = pre-emergence, Preemergence, visual injury, 0 to 100 scale (0 no effect, 100 complete control)

O=C1CCCC(O)=C1C(=O)c1cnc(-c2cccnc2)n(-c2ccccc2)c1=O [Compound 113, 5-[(2-hydroxy-6-oxo-1-cyclohexen-1-yl)carbonyl]-3-phenyl-2-(3-pyridinyl)-4(3H)-pyrimidone]
pest or weed control at 125 g/ha [1, 11]: 70%
pest or weed control at 500 g/ha [1, 12]: 90%
pest or weed control at 125 g/ha [1, 13]: 10%
pest or weed control at 500 g/ha [1, 14]: 90%
Corn plant response rating (crop injury, 0 = no effect, 100 = complete kill) at 125 g/ha (corn (Zea mays); [11]): 0%
Corn plant response rating (crop injury, 0 = no effect, 100 = complete kill) at 500 g/ha (corn (Zea mays); post-emergence, Postemergence, 500 g ai/ha, 0 to 100 scale, 0 = no effect, 100 = complete control, approx. ten days): 60%
Corn plant response rating (crop injury, 0 = no effect, 100 = complete kill) at 125 g/ha (corn (Zea mays); [13]): 0%
pest or weed control at 125 g/ha [2, 11]: 90%
pest or weed control at 500 g/ha [2, 12]: 100%
pest or weed control at 125 g/ha [2, 13]: 70%
pest or weed control at 500 g/ha [2, 14]: 90%
pest or weed control at 125 g/ha [3, 11]: 100%
pest or weed control at 500 g/ha [3, 12]: 100%
pest or weed control at 125 g/ha [3, 13]: 70%
pest or weed control at 500 g/ha [3, 14]: 100%
pest or weed control at 125 g/ha [4, 11]: 100%
pest or weed control at 500 g/ha [4, 12]: 100%
pest or weed control at 125 g/ha [4, 13]: 30%
pest or weed control at 500 g/ha [4, 14]: 80%
pest or weed control at 125 g/ha [5, 11]: 100%
pest or weed control at 500 g/ha [5, 12]: 100%
pest or weed control at 125 g/ha [5, 13]: 100%
pest or weed control at 500 g/ha [5, 14]: 100%
pest or weed control at 125 g/ha [6, 11]: 100%
pest or weed control at 500 g/ha [6, 12]: 100%
pest or weed control at 125 g/ha [6, 13]: 100%
pest or weed control at 500 g/ha [6, 14]: 100%
plant injury at 125 g/ha [7, 11]: 0%
plant injury at 500 g/ha [7, 12]: 60%
plant injury at 125 g/ha [7, 13]: 0%
plant injury at 500 g/ha [7, 14]: 0%
pest or weed control at 250 g/ha ([8]; 250 g ai/ha, flooded paddy test, visual rating on 0 to 100 scale (0 no effect, 100 complete control) after 13 to 15 days, read-out: Plant response rating, Flood, Barnyardgrass): 15%
pest or weed control at 62 g/ha ([8]; Flood (flooded paddy test), 62 g ai/ha, scale of 0 to 100 where 0 is no effect and 100 is complete control, 13 to 15 days, read-out: Plant response rating, Barnyardgrass): 10%
pest or weed control at 250 g/ha ([9]; 250 g ai/ha, flooded paddy test, visual rating on 0 to 100 scale (0 no effect, 100 complete control) after 13 to 15 days, read-out: Plant response rating, Flood, Ducksalad): 70%
pest or weed control at 62 g/ha ([9]; Flood (flooded paddy test), 62 g ai/ha, scale of 0 to 100 where 0 is no effect and 100 is complete control, 13 to 15 days, read-out: Plant response rating, Ducksalad): 25%
plant injury at 250 g/ha (rice (Oryza sativa); 250 g ai/ha, flooded paddy test, visual rating on 0 to 100 scale (0 no effect, 100 complete control) after 13 to 15 days, read-out: Plant response rating, Flood, Rice): 0%
plant injury at 62 g/ha (rice (Oryza sativa); Flood (flooded paddy test), 62 g ai/ha, scale of 0 to 100 where 0 is no effect and 100 is complete control, 13 to 15 days, read-out: Plant response rating, Rice): 0%
pest or weed control at 250 g/ha ([10]; 250 g ai/ha, flooded paddy test, visual rating on 0 to 100 scale (0 no effect, 100 complete control) after 13 to 15 days, read-out: Plant response rating, Flood, Sedge, Umbrella): 70%
pest or weed control at 62 g/ha ([10]; Flood (flooded paddy test), 62 g ai/ha, scale of 0 to 100 where 0 is no effect and 100 is complete control, 13 to 15 days, read-out: Plant response rating, Sedge, Umbrella): 40%
